# Tests used:
# [1] = tested on: Chinese hamster ovary (CHO) cells; assay: In vitro genotoxicity screen in CHO cells; details: approximately 3 hours exposure in the dark
# Description: In such studies, cells are exposed to chemicals with and/or without rat S-9 metabolic activation system (S-9) and are later examined for either cell survival (for a genotoxicity screen) or for changes in chromosome structure (for a chromosome aberration assay).
# Chinese hamster ovary (CHO; ATCC CCL 61 CHO-K1, proline-requiring) cells were used for the in vitro genotoxicity and chromosomal aberration tests. CHO cells are used extensively for cytogenic testing because they have a relatively low number of chromosomes (2n=20) and a rapid rate of multiplication (˜12 to 14 hours, depending on culture conditions). The cells were grown in an atmosphere of 5% CO2 at approximately 37° C. in McCoy's 5a medium with 15% fetal bovine serum (FBS), 2 mM L-glutamine, and 1% penicillin-streptomycin solution to maintain exponential growth. This medium was also used during exposure of the cells to the test compound when no S-9 was used. Cell cultures were maintained and cell exposures were performed in T-75 or T-25 flasks.
# Each of the sample compounds were tested at seven dilutions, 1, 3, 10, 33, 100, 333, and 1000 μg/ml. […]
# After approximately 2.5 hours in colchicine, the cells were harvested. […] The cell density and metaphase quality on the initial slide from each flask was monitored using a phase-contrast microscope; at least two slides of appropriate cell density were prepared from each flask. […]
# [2] = tested on: H9 cells chronically infected with HIVIIIB; assay: Inactivation of cell-associated HIV in platelet concentrate, HIV microplaque assay; assay type: cell-based; details: for log inactivation of HIV, dark control: 150 μM psoralen, no UVA; for logs of HIV inactivated: 150 μM, 3 Joules/cm^2, cell-associated HIV in platelet concentrate
# Procedure: H9 cells chronically infected with HIVIIIB were used. (H9/HTLV-III-B NIH 1983 Cat.#400). Cultures of these cells were maintained in high glucose Dulbecco Modified Eagle Medium supplemented with 2 mM L-glutamine, 200 u/mL penicillin, 200 μg/ml streptomycin, and 9% fetal bovine serum (Intergen Company, Purchase, N.Y.) For maintenance, the culture was split once a week, to a density of 3×10^5 to 4×10^5 cells/ml and about four days after splitting, 3.3% sodium bicarbonate was added as needed. For the inactivation procedure, the cells were used three days after they were split. They were pelleted from their culture medium at 400 g×10 minutes, the supernatant was discarded, and the cells were resuspended in one to five day old human platelet concentrate (PC) (pH 7.5-6.5), to a concentration of 2×10^6 cells/ml. Aliquots of the PC-infected cell suspension were made for psoralen free dark controls, for psoralen free UVA only controls, for psoralen dark controls, and for the psoralen plus UVA experimental sample. Concentrated filter-sterilized stock solutions of each psoralen in water were diluted into the appropriate aliquots to yield a final concentration of 150 μM. […] After an equilibration period of thirty minutes at room temperature, 0.5 ml of each of the dark controls was placed in a cryovial and stored in the dark at −80° C. For UVA illumination, 8 ml of the psoralen free aliquot and 8 ml of each psoralen containing aliquot were introduced into a modified Fl 20 Teflon™ bag (modified to be 92 cm^2 total surface area, The West Co., Phoenixvill, Pa.) via a plastic disposable 10 ml syringe attached to one of the polypropylne ports on the bag. This gave an average path length of 0.17 cm. The bags were then illuminated for a total exposure of 3 Joules/cm^2 in the device described in Example 1, above, attached to a circulating refrigerating water bath set at 4° C., which maintains the temperature in the bag at approximately 22-25° C. During exposure, the device was shaken on a platelet shaker (Helmer Labs, Noblesville, Ind.). After exposure, the contents of the bags were withdrawn by a fresh syringe through the remaining unused port on the bag, and placed in cryovials for storage in the dark at −80° C. until analysis.
# The stored samples were thawed at 37° C., then titrated in an HIV microplaque assay, as described in Hanson, C. […] Clot removal from each sample was performed before plating.
# [3] = S-59 concentration by HPLC before and after illumination and RD treatment (Table Q); assay type: physicochemical
# Procedure: Two ABO-matched single donor PCs containing 2−5×10^11 platelets in approximately 300 mL of 35% plasma and 65% PAS III were pooled and redivided into two identical units in PL 2410 Plastic containers (Baxter). One unit (the control) was immediately placed on a platelet shaker and stored at approximately 22° C. The other unit (the test) was treated with 150 μM S-59 and 3 Joules/cm^2 UVA. After treatment, the platelets suspension was transferred into a second PL 2410 Plastic container containing a RD. Contact between platelets and the RD occurred for a period of approximately 8 hours, then the platelet suspension was transferred to a new PL 2410 Plastic container for storage. The time of blood donation was defined as day 0. Treatment with S-59, UVA (320-400 nm), and the RD was performed on day 1. Six replicate experiments were carried out, each with a different pool of two ABO-matched single-donor platelet concentrates.
# To evaluate the efficacy of the RD for reducing the concentration of S-59, platelet samples from the test unit were analyzed for S-59 content by HPLC. Samples before illumination, after 3 Joules/cm^2 of illumination, and immediately following the 8-hour RD treatment were analyzed.
# [4] = tested on: Salmonella tester strain TA102; assay: Ames test, strain TA102
# Procedure: In this example the compounds of the present invention are tested for their dark mutagenicity using an Ames assay. The procedures used for the Salmonella mutagenicity test as described in detail by Maron and Ames were followed exactly. Maron, D. M. and B. N. Ames, Mutation Research 113: 173 ( 1983). A brief description for each procedure is given here. The tester strains TA97a, TA98, TA100, TA102, TA1537 and TA1538 were obtained from Dr. Ames. TA97a, TA98, TA1537 and TA1538 are frameshift tester strains. TA100 and TA102 are base-substitution tester strains. Upon receipt each strain was cultured under a variety of conditions to confirm the genotypes specific to the strains.
# The first tests done with the strains were to determine the range of spontaneous reversion for each of the strains. With each mutagenicity experiment the spontaneous reversion of the tester strains to histidine independence was measured and expressed as the number of spontaneous revertants per plate. This served as the background controls.
# For all experiments, the pre-incubation procedure was used. In this procedure one vial of each tester strain was thawed and 20 μL of this culture was added to 6 mL of Oxoid Nutrient Broth #2. This solution was allowed to shake for 10 hours at 37° C. In the pre-incubation procedure, 0.1 mL of this overnight culture was added to each of the required number of sterile test tubes. To half of the tubes 0.5 mL of a 10% S-9 solution containing Aroclor 1254 induced rat liver extract (Molecular Toxicology Inc., Annapolis, Md.), and MgCl2, KCl, glucose-6-phosphate, NADP, and sodium phosphate buffer (Sigma, St. Louis, Mo.) were added. To the other half of the tubes 0.5 mL of 0.2M sodium phospate buffer, pH 7.4, was used in place of the S-9 mixture (the—S9samples). Finally 0.1 mL of the test solution containing either 0, 0.1, 0.5, 1, 5, 10, 50, 100, 250, or 500 μg/mL of the test compound was added. The 0.7 mL mixture was vortexed and then pre-incubated while shaking for 20 minutes at 37° C. After shaking, 2 mL of molten top agar supplemented with histidine and biotin were added to the 0.7 mL mixture and immediately poured onto a minimal glucose agar plate (volume of base agar was 20 mL). The top agar was allowed 30 minutes to solidify and then the plates were inverted and incubated for 44 hours at 37° C. After incubation the number of revertant colonies on each plate were counted. […] (“n” represents the number of replicates performed for each data point.)
compound,measurement,setting,value
"Cc1oc2c(C)c3oc(=O)cc(C)c3cc2c1CNCCCCN [Compound 6, 4′-(6-amino-2-aza)hexyl-4,5′,8-trimethylpsoralen]",concentration at which the compound was genotoxic (toxic dose),[1],100 µg/mL
"Cc1oc2c(C)c3oc(=O)cc(C)c3cc2c1COCCN [Compound 2, 4′-(4-amino-2-oxa)butyl-4,5′,8-trimethylpsoralen]","log inactivation of HIV, dark control",[2],0 logs
same,logs of HIV inactivated,[2],> 6.7 logs
same,initial S-59 concentration in a platelet concentrate,"[3]; 0 Joule/cm^2, HPLC",approximately 145±10 μM
same,μM S-59,[3]; Post Treatment With An RD (8 Hours),0.27 ± 0.05 µM
same,μM S-59,"[3]; Pre-Treatment (0 Joule/cm^2), platelet concentrate",145 ± 10 µM
same,initial S-59 remaining unreacted,[3]; after 3 Joule/cm^2 of illumination,20.5%±2.3%
"Cc1cc(=O)oc2c(C)c3oc(COCCN)c(C)c3cc12 [Compound 18, 5′-(4-amino-2-oxa)butyl-4,4′,8-trimethylpsoralen]","log inactivation of HIV, dark control",[2],0 logs
same,logs of HIV inactivated,[2],> 7.2 logs
"Cc1oc2c(C)c3oc(=O)cc(C)c3cc2c1CN [AMT, 4′-Aminomethyl-4,5′,8-trimethylpsoralen, reference compound]",revertant colonies per plate,"[4]; TA102 + S9, 0.1 μg/plate",−20
same,revertant colonies per plate,"[4]; TA102 + S9, 0.5 μg/plate",5
same,revertant colonies per plate,"[4]; TA102 + S9, 1 μg/plate",−17
same,revertant colonies per plate,"[4]; TA102 + S9, 5 μg/plate",51
same,revertant colonies per plate,"[4]; TA102 − S9, 0.1 μg/plate",27
same,revertant colonies per plate,"[4]; TA102 − S9, 0.5 μg/plate",47
same,revertant colonies per plate,"[4]; TA102 − S9, 1 μg/plate",88
same,revertant colonies per plate,"[4]; TA102 − S9, 5 μg/plate",266
same,concentration at which the compound was genotoxic (toxic dose),[1],30 µg/mL
